Test results published in patent EP0581652A1, “Pradimicins T1 and T2 and 11-0-dexylosylpradimicin T1, new members of the pradimicin family of antibiotics” (priority 1992, dated 1994).

Key:
[1] = tested on: Aspergillus fumigatus IAM 2034; assay: In vitro antifungal activity, agar dilution method (MIC); assay type: cell-based; settings: yeast morphology agar + 1/15M phosphate buffer (pH 7.0), 10^6 cells/ml, 28°C, 40 hrs
[2] = tested on: Trichophyton mentagrophytes 4329; assay: as above; assay type: cell-based; settings: yeast morphology agar + 1/15M phosphate buffer (pH 7.0), 10^7 cells/ml, 28°C, 60 hrs
[3] = tested on: Saccharomyces cerevisiae ATCC 9763; assay: as above; assay type: cell-based; settings: yeast morphology agar + 1/15M phosphate buffer (pH 7.0), 10^6 cells/ml, 28°C, 40 hrs
Candida albicans A9540 [4] = assay: as above; assay type: cell-based; settings: yeast morphology agar + 1/15M phosphate buffer (pH 7.0), 10^6 cells/ml, 28°C, 40 hrs
[5] = tested on: Candida albicans ATCC 32354 (B311); assay: as above; assay type: cell-based; settings: yeast morphology agar + 1/15M phosphate buffer (pH 7.0), 10^6 cells/ml, 28°C, 40 hrs
[6] = tested on: Candida albicans 83-2-14 (Juntendo); assay: as above; assay type: cell-based; settings: yeast morphology agar + 1/15M phosphate buffer (pH 7.0), 10^6 cells/ml, 28°C, 40 hrs
[7] = tested on: Cryptococcus neoformans D49; assay: as above; assay type: cell-based; settings: yeast morphology agar + 1/15M phosphate buffer (pH 7.0), 10^6 cells/ml, 28°C, 40 hrs
[8] = tested on: Cryptococcus neoformans IAM 4514; assay: as above; assay type: cell-based; settings: yeast morphology agar + 1/15M phosphate buffer (pH 7.0), 10^6 cells/ml, 28°C, 40 hrs
Candida albicans A9540 [9] = assay: In vivo efficacy against systemic infection in mice; settings: male ICR mice; C. albicans A9540 systemic infection; single intravenous dose immediately after challenge; survival rate 20 days after infection
Procedure: (§1) Pradimicins T1 and T2 were evaluated for in vivo efficacy against a Candida albicans A9540 systemic infection in male ICR mice (20-24 g body weight) as described by Oki etal. in water-soluble pradimicin derivatives, synthesis and antifungal evaluation of N,N,-dimethyl pradimicins, J. Antibiotics 43: 1230-1235, 1990. Five mice at each dose level were challenged intravenously with ten times the 50% lethal dose of the pathogen suspended in saline. Antibiotics were intravenously administered once immediately after the fungal challenge. Infection control animals (n=10) died from 7 to 12 days. The 50% protective dose (PD50) was calculated from the survival rate 20 days after the fungal infection. The acute toxicity of pradimicins T1 and T2 was determined in mice after a single intravenous dose.

[10] = Acute toxicity in mice after a single intravenous dose; assay type: in vivo
Procedure: as §1

For “11-O-dexylosylpradimicin T1 [11-O-Dexylosyl-pradimicin T1]”, the MIC [1] was 25 μ g/ml and the MIC [2] was 12.5 μ g/ml.

With Amphotericin B the MIC [3] was 0.4 µg/mL, the MIC (Candida albicans A9540 [4]) was 0.4 µg/mL and the MIC [5] was 0.4 µg/mL. The MIC [6] was 0.4 µg/mL, the MIC [7] was 0.4 µg/mL and the MIC [8] was 0.4 µg/mL. It also gave an MIC [1] of 0.8 μ g/ml, an MIC [2] of 0.8 μ g/ml and a PD50 (Candida albicans A9540 [9]) of 0.2 mg/kg. The LD50 [10] was 4.5 mg/kg.

In the case of Pradimicin T1, the MIC [1] is reported as 6.3 μ g/ml and the MIC [2] is reported as 6.3 μ g/ml.

With Pradimicin T2 the MIC [1] was >100 μ g/ml and the MIC [2] was 50 μ g/ml.
